Test results reported in ChEMBL document CHEMBL1145323, “Synthesis and biological activity of amide derivatives of nimbolide” (Bioorg Med Chem Lett, 2006).

Assays:
Assay type in all cases: functional, cell-based; call rule not given here
[1] = test system: PC-3; experiment: Antiproliferative activity against human PC3 cell line
[2] = test system: OVCAR-5; experiment: Antiproliferative activity against human OVCAR5 cell line
[3] = test system: HOP-62; experiment: Antiproliferative activity against human HOP62 cell line
[4] = test system: A549; experiment: Antiproliferative activity against human A549 cell line
[5] = test system: HT-29; experiment: Antiproliferative activity against human HT29 cell line
[6] = test system: SW-60; experiment: Antiproliferative activity against […]
[7] = Homo sapiens, OVCAR-5, read-out: IC50
[8] = Homo sapiens, HT-29, read-out: IC50
[9] = Homo sapiens, PC-3, read-out: IC50
[10] = Homo sapiens, HOP-62, read-out: IC50
[11] = Homo sapiens, A549, read-out: IC50
[12] = Homo sapiens, SW-60, read-out: IC50

Row | SMILES | IC50 ([1]; pc-3) | IC50 [2, 7] | IC50 ([3]; hop-62) | IC50 ([4]; a549) | IC50 [5, 8] | IC50 ([6]; sw-60) | IC50 [1, 9] | IC50 ([2]; ovcar-5) | IC50 [3, 10] | IC50 [4, 11] | IC50 [6, 12] | IC50 ([5]; ht-29)
1 | COC(=O)C[C@H]1[C@]2(C)C3=C(C)[C@H](c4ccoc4)C[C@H]3O[C@@H]2[C@H](O)[C@@H]2[C@]1(C)C(=O)C=C[C@@]2(C)C(=O)NCc1ccc(F)cc1 | Not Active | 84.1 µM | Not Active | Not Active | 78.1 µM | Not Active | – | – | – | – | – | –
2 | COC(=O)C[C@H]1[C@]2(C)C3=C(C)[C@H](c4ccoc4)C[C@H]3O[C@@H]2[C@H](O)[C@@H]2[C@]1(C)C(=O)C=C[C@@]2(C)C(=O)NCc1ccc(C(F)(F)F)cc1 | – | – | – | – | 17.5 µM | – | 32.3 µM | Not Active | 14.1 µM | 37.3 µM | 26.4 µM | –
3 | COC(=O)C[C@H]1[C@]2(C)C3=C(C)[C@H](c4ccoc4)C[C@H]3O[C@@H]2[C@@H]2OC(=O)[C@]3(C)C=CC(=O)[C@@]1(C)[C@@H]23 [NIMBOLIDE] | – | 4.17 µM | – | – | 6.94 µM | – | 4.59 µM | – | 10.4 µM | 15.6 µM | 8.25 µM | –
4 | COC(=O)C[C@H]1[C@]2(C)C3=C(C)[C@H](c4ccoc4)C[C@H]3O[C@@H]2[C@H](O)[C@@H]2[C@]1(C)C(=O)C=C[C@@]2(C)C(=O)NC(C)c1ccccc1 (stereo partly specified) | – | 89.2 µM | Not Active | Not Active | 47.2 µM | Not Active | 43.1 µM | – | – | – | – | –
5 | COC(=O)C[C@H]1[C@]2(C)C3=C(C)[C@H](c4ccoc4)C[C@H]3O[C@@H]2[C@H](O)[C@@H]2[C@]1(C)C(=O)C=C[C@@]2(C)C(=O)NC(C(=O)OC)c1ccccc1 (stereo partly specified) | – | – | – | Not Active | 8.62 µM | Not Active | 8.11 µM | Not Active | 13.5 µM | – | – | –
6 | COC(=O)C[C@H]1[C@]2(C)C3=C(C)[C@H](c4ccoc4)C[C@H]3O[C@@H]2[C@H](O)[C@@H]2[C@]1(C)C(=O)C=C[C@@]2(C)C(=O)N1CCCCC1 | – | 62.3 µM | Not Active | – | 91.5 µM | Not Active | 48.2 µM | – | – | 78.3 µM | – | –
7 | COC(=O)C[C@H]1[C@]2(C)C3=C(C)[C@H](c4ccoc4)C[C@H]3O[C@@H]2[C@H](O)[C@@H]2[C@]1(C)C(=O)C=C[C@@]2(C)C(=O)NCc1ccccc1 | Not Active | 82.4 µM | – | Not Active | 43.2 µM | Not Active | – | – | 26.3 µM | – | – | –
8 | COC(=O)C[C@H]1[C@]2(C)C3=C(C)[C@H](c4ccoc4)C[C@H]3O[C@@H]2[C@H](O)[C@@H]2[C@]1(C)C(=O)C=C[C@@]2(C)C(=O)NCC(C)C | – | 1.53 µM | – | Not Active | 0.05 µM | – | 7.43 µM | – | 4.83 µM | – | 0.08 µM | –
9 | COC(=O)C[C@H]1[C@]2(C)C3=C(C)[C@H](c4ccoc4)C[C@H]3O[C@@H]2[C@H](O)[C@@H]2[C@]1(C)C(=O)C=C[C@@]2(C)C(=O)NCc1cccc(OC)c1 | Not Active | – | – | Not Active | 63.1 µM | Not Active | – | Not Active | 79.2 µM | – | – | –
10 | COC(=O)C[C@H]1[C@]2(C)C3=C(C)[C@H](c4ccoc4)C[C@H]3O[C@@H]2[C@H](O)[C@@H]2[C@]1(C)C(=O)C=C[C@@]2(C)C(=O)NCc1ccc(OC)cc1 | – | 93.1 µM | – | Not Active | – | Not Active | 21.5 µM | – | 102 µM | – | – | Not Active
11 | COC(=O)C[C@H]1[C@]2(C)C3=C(C)[C@H](c4ccoc4)C[C@H]3O[C@@H]2[C@H](O)[C@@H]2[C@]1(C)C(=O)C=C[C@@]2(C)C(=O)N1CCOCC1 | – | 2.11 µM | Not Active | Not Active | 3.38 µM | – | 2.26 µM | – | – | – | 5.72 µM | –
